Values after ≈ are worked out from the molar mass of the structure shown.
Tests used:
Shigella dysenteriae = assay: Disc diffusion; type: cell-based; conditions: standard Ciprofloxacin 5 µg/disc
mice = assay: Peripheral anti-nociception, acetic acid-induced writhing; type: in vivo, Mus musculus; conditions: for Number of Writhing (Mean ± SEM): counted for 15 min, n = 5
Vibrio parahaemolyticus = assay: Disc diffusion; type: cell-based; conditions: standard Ciprofloxacin 5 µg/disc
Aspergillus niger = assay: Disc diffusion; type: cell-based; conditions: standard Ciprofloxacin 5 µg/disc
Shigella boydii = assay: Disc diffusion; type: cell-based; conditions: standard Ciprofloxacin 5 µg/disc
Pseudomonas aeruginosa = assay: Disc diffusion; type: cell-based; conditions: standard Ciprofloxacin 5 µg/disc
Vibrio mimicus = assay: Disc diffusion; type: cell-based; conditions: standard Ciprofloxacin 5 µg/disc
Bacillus subtilis = assay: Disc diffusion; type: cell-based; conditions: standard Ciprofloxacin 5 µg/disc
[1] = Antioxidant activity, DPPH free radical scavenging; type: biochemical; conditions: absorbance at 517 nm
acetylcholinesterase = target: T1, acetylcholinesterase (Rattus norvegicus, UniProt P37136); assay: In-vitro anti-acetylcholinesterase activity; type: biochemical
T1 sequence (P37136 32-614): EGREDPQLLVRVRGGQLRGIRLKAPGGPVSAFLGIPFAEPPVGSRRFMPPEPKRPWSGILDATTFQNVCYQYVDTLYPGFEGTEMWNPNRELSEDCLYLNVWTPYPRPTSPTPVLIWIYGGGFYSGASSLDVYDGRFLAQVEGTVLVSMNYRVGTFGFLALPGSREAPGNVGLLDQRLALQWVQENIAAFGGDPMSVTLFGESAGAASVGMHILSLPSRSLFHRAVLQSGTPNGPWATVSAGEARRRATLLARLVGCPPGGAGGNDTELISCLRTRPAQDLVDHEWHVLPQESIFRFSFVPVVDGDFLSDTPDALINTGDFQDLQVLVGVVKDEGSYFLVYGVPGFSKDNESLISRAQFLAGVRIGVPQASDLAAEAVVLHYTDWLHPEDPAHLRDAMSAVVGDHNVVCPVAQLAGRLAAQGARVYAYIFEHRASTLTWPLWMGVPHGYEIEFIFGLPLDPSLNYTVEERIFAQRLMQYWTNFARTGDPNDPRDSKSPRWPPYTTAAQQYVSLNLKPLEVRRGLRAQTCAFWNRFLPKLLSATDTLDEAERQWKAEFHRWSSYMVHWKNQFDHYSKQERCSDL

Bacillus cereus = assay: Disc diffusion; type: cell-based; conditions: standard Ciprofloxacin 5 µg/disc
Saccharomyces cerevisiae = assay: Disc diffusion; type: cell-based; conditions: standard Ciprofloxacin 5 µg/disc
Staphylococcus aureus = assay: Disc diffusion; type: cell-based; conditions: standard Ciprofloxacin 5 µg/disc
Salmonella paratyphi = assay: Disc diffusion; type: cell-based; conditions: standard Ciprofloxacin 5 µg/disc
Escherichia coli = assay: Disc diffusion; type: cell-based; conditions: standard Ciprofloxacin 5 µg/disc
Sarcina lutea = assay: Disc diffusion; type: cell-based; conditions: standard Ciprofloxacin 5 µg/disc
Bacillus megaterium = assay: Disc diffusion; type: cell-based; conditions: standard Ciprofloxacin 5 µg/disc
rat hind paw oedema = assay: Anti-inflammatory activity, carrageenan-induced rat hind paw oedema; type: in vivo, Sprague Dawley rat; conditions: test compounds 100 mg/kg; for Mean paw edema (volume in ml) ± SEM: n = 5
Salmonella typhi = assay: Disc diffusion; type: cell-based; conditions: standard Ciprofloxacin 5 µg/disc
Candida albicans = assay: Disc diffusion; type: cell-based; conditions: standard Ciprofloxacin 5 µg/disc

SMILES: c1ccc(COCc2nc3ccccc3[nH]2)cc1 [Compound 6, 2-((benzyloxy)-methyl)-1H-benzimidazole]
- Diameter of zone of inhibition (mm) (Shigella dysenteriae): 0 mm
- % of Inhibition of Writhing (mice; 25 mg/kg): 37.69%
- Number of Writhing (Mean ± SEM) (mice; 25 mg/kg): 16.7 ± 0.889
- % of Inhibition of Writhing (mice; 50 mg/kg): 55.60%
- Number of Writhing (Mean ± SEM) (mice; 50 mg/kg): 11.9 ± 0.458
- Diameter of zone of inhibition (mm) (Vibrio parahaemolyticus): 10 mm
- Diameter of zone of inhibition (mm) (Aspergillus niger): 0 mm
- Diameter of zone of inhibition (mm) (Shigella boydii): 7 mm
- Diameter of zone of inhibition (mm) (Pseudomonas aeruginosa): 7 mm
- Diameter of zone of inhibition (mm) (Vibrio mimicus): 9 mm
- Diameter of zone of inhibition (mm) (Bacillus subtilis): 10 mm
- IC50 (antioxidant activity, DPPH scavenging) [1]: 579.19 µg/mL (≈ 2430 µM)
- IC50 (acetylcholinesterase): 124 µM
- Diameter of zone of inhibition (mm) (Bacillus cereus): 8 mm
- Diameter of zone of inhibition (mm) (Saccharomyces cerevisiae): 7 mm
- Diameter of zone of inhibition (mm) (Staphylococcus aureus): 7 mm
- Diameter of zone of inhibition (mm) (Salmonella paratyphi): 8 mm
- Diameter of zone of inhibition (mm) (Escherichia coli): 0 mm
- Diameter of zone of inhibition (mm) (Sarcina lutea): 7 mm
- Diameter of zone of inhibition (mm) (Bacillus megaterium): 7 mm
- % Paw edema inhibition (rat hind paw oedema; 1st hour): 22.88%
- Mean paw edema (volume in ml) ± SEM (rat hind paw oedema; 1st hour): 0.906 ± 0.047 mL
- % Paw edema inhibition (rat hind paw oedema; 2nd hour): 23.77%
- Mean paw edema (volume in ml) ± SEM (rat hind paw oedema; 2nd hour): 0.93 ± 0.028 mL
- % Paw edema inhibition (rat hind paw oedema; 3rd hour): 25.19%
- Mean paw edema (volume in ml) ± SEM (rat hind paw oedema; 3rd hour): 0.98 ± 0.018 mL
- % Paw edema inhibition (rat hind paw oedema; 4th hour): 31.91%
- Mean paw edema (volume in ml) ± SEM (rat hind paw oedema; 4th hour): 0.96 ± 0.039 mL
- Diameter of zone of inhibition (mm) (Salmonella typhi): 8 mm
- Diameter of zone of inhibition (mm) (Candida albicans): 0 mm
